Assay results published in article PMC6156440, “A Class 1 Histone Deacetylase as Major Regulator of Secondary Metabolite Production in Aspergillus nidulans” (Frontiers in Microbiology, 2018).

Target: T1, HosA (TAP-tagged HosA) (Aspergillus nidulans, UniProt Q5B6M4)
T1 construct: gene ANIA_03806; TAP-tagged HosA expressed in A. nidulans hosA deletion strain under xylPp; IgG-Sepharose pull-down under native conditions, eluted by TEV protease (CBP part of tag kept); enriched fraction, endogenous complex partners not examined
T1 sequence (Q5B6M4 1-482): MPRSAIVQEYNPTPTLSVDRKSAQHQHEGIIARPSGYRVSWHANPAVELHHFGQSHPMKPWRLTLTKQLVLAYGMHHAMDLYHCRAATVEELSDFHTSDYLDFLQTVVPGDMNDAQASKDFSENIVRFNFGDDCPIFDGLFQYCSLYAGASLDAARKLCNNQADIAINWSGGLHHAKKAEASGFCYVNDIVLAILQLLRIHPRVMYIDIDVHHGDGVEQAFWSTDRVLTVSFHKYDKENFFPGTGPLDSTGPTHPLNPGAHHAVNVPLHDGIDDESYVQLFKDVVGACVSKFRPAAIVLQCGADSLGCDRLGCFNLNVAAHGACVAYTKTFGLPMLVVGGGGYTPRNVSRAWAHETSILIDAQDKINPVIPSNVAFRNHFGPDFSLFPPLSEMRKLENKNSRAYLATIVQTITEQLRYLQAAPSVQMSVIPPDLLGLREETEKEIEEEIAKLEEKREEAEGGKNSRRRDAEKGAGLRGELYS
Assay: fluorometric HDAC assay, labelled acetylated peptide substrate (EMD Millipore kit)
Assay type: biochemical
Conditions: read-out: % inhibition at 100 nM

`CC(/C=C/C(=O)NO)=C\[C@@H](C)C(=O)c1ccc(N(C)C)cc1` [TSA, trichostatin A] was tested, and the inhibition at 0.1 µM was > 60%.
